Read-outs that look alike come from different tables or passages of the source.
Experiments:
HCT116 MTAP KO cells = test: Inhibitory activity against cell proliferation (CellTiter Glo, 6 days), HCT116 MTAP KO; format: cell-based; details: for IC50: HCT116 MTAP KO cells, 6 days, CellTiter Glo, read-out: HCT116 MTAP KO IC50; for Selectivity HCT 116-WT/ HCT116 MTAP KO: ratio of IC50 HCT116-WT / HCT116 MTAP KO
Description: (§1) HCT116-WT (ATCC, CCL-247) and HCT116 MTAP KO (Nanjing Cobioer, CBP75002) cells were seeded into white low-transparency sterile 96-well cell culture plates at a density of 250 cells per well respectively, and the culture medium was McCoy's 5A Medium+10% FBS. The plates were placed under the condition of 37°C and 5% CO2 to be cultured overnight. The cells were treated with 4-fold serially diluted compounds of 8 concentration points starting at an initial concentration of 10000 nM, and the last two columns were used as control wells to which only DMSO was added. The drug-treated cells were further cultured for 6 days. On day 7, CellTiter Glo® reagent was added at 50 uL per well, and after reaction under shaking for 10 minutes at room temperature, the chemiluminescence signals were detected for the well plates through the chemiluminescence detection method using a BIOTEK H1 multifunctional microplate-reader. The IC50 values for inhibition of the compounds on cell viability were calculated in X1fit 5.0 software. Table 2. IC50 values for inhibition of the compounds on HCT116 MTAP KO/WT cell growth

HCT116-WT cells = test: Inhibitory activity against cell proliferation (CellTiter Glo, 6 days), HCT116-WT; format: cell-based; details: HCT116-WT cells, 6 days, CellTiter Glo, read-out: HCT116-WT IC50
Description: as §1

SMILES	IC50 (HCT116 MTAP KO cells; Homo sapiens, HCT-116, 144 h)	Selectivity HCT 116-WT/ HCT116 MTAP KO (HCT116 MTAP KO cells)	IC50 (HCT116-WT cells; 144 h)	IC50 (HCT116 MTAP KO cells)	IC50 (HCT116-WT cells)
Cc1cc2cc(C(=O)N(Cc3ccc(-c4cn(C)cn4)cn3)N(C)c3ncccn3)ccc2nc1N [Example 194, 2-amino-N',3-dimethyl-N-((5-(1-methyl-1H-imidazol-4-yl)pyridin-2-yl)methyl)-N '-(pyrimidin-2-yl)quinoline-6-carbohydrazide]	257 nM	16.46	4230 nM	–	–
Cc1cc2cc(C(=O)N(Cc3ccc4sc(C5=CCN(C)CC5)nc4c3)N(C)c3ncccn3)ccc2nc1N [Example 195, 2-amino-N',3-dimethyl-N-((2-(1-methyl-1,2,3,6-tetrahydropyridin-4-yl)benzo[d]thiazol-5-yl)methyl)-N'-(pyrimidin-2-yl)qui noline-6-carbohydrazide]	216 nM	14.53	3140 nM	–	–
Cc1cc2cc(C(=O)N(Cc3ccc(-c4cnc5c(cnn5C)c4)cn3)N(C)c3ncccn3)ccc2nc1N [Example 198, 2-amino-N',3-dimethyl-N-((5-(1-methyl-1H-pyrazolo[3,4-b]pyridin-5-yl)pyridin-2-yl)methyl)-N'-(pyrimidin-2-yl)quinoline-6-carbohydrazide]	–	26.09	–	32 nM	835 nM
Cc1cc2cc(C(=O)N(Cc3ccc(-c4cncs4)cn3)N(C)c3ncccn3)ccc2nc1N [Example 204, 2-amino-N',3-dimethyl-N'-(pyrimidin-2-yl)-N-((5-(thiazol-5-yl)pyridin-2-yl)methyl)quinoline-6-carbohydrazide]	14 nM	28.29	396 nM	–	–
Cc1cc2cc(C(=O)N(Cc3ccc(-c4cnn(C(C)(C)C)c4)cn3)N(C)c3ncccn3)ccc2nc1N [Example 205, 2-amino-N-((5-(1-(tert-butyl)-1H-pyrazol-4-yl)pyridin-2-yl)methyl)-N',3-dimethyl-N'-(pyrimidin-2-yl)quinoline-6-carbohydr azide]	58 nM	20.14	1170 nM	–	–
CCn1cc(-c2ccc(CN(C(=O)c3ccc4nc(N)c(C)cc4c3)N(C)c3ncccn3)nc2)cn1 [Example 206, 2-amino-N-((5-(1-ethyl-1H-pyrazol-4-yl)pyridin-2-yl)methyl)-N',3-dimethyl-N'-(pyrimidin-2-yl)quinoline-6-carbohydrazide]	18 nM	51.17	921 nM	–	–
Cc1cc2cc(C(=O)N(Cc3ccc(-c4ccc(N5CCNCC5)nc4)cn3)N(C)c3ncccn3)ccc2nc1N [Example 207, 2-amino-N',3-dimethyl-N-((6'-(piperazin-1-yl)-[3,3'-bipyridine]-6-yl)methyl)-N'-(pyrimidin-2-yl)quinoline-6-carbohydrazide]	26 nM	18.77	488 nM	–	–
Cc1cc2cc(C(=O)N(Cc3ccc(-c4ccn(C)c(=O)c4)cn3)N(C)c3ncccn3)ccc2nc1N [Example 209, 2-amino-N',3-dimethyl-N-((1'-methyl-2'-oxo-1',2'-dihydro-[3,4'-bipyridine]-6-yl)methyl)-N'-(pyrimidin-2-yl)quinoline-6-car bohydrazide]	26 nM	27.54	716 nM	–	–
Cc1cc2cc(C(=O)N(Cc3ccc(-c4ccns4)cn3)N(C)c3ncccn3)ccc2nc1N [Example 210, 2-amino-N-((5-(isothiazol-5-yl)pyridin-2-yl)methyl)-N',3-dimethyl-N'-(pyrimidin-2-yl)quinoline-6-carbohydrazide]	25 nM	19.68	492 nM	–	–
Cc1cc2cc(C(=O)N(Cc3ccc(-c4ccc(N(C)C)nc4)cn3)N(C)c3ncccn3)ccc2nc1N [Example 212, 2-amino-N-((6'-(dimethylamino)-[3,3'-bipyridine]-6-yl)methyl)-N',3-dimethyl-N'-(pyrimidin-2-yl)quinoline-6-carbohydrazide]	30 nM	21.53	646 nM	–	–
Cc1cc2cc(C(=O)N(Cc3ccc(-c4cnn(C(F)F)c4)cn3)N(C)c3ncccn3)ccc2nc1N [Example 213, 2-amino-N-((5-(1-(difluoromethyl)-1H-pyrazol-4-yl)pyridin-2-yl)methyl)-N',3-di methyl-N'-(pyrimidin-2-yl)quinoline-6-c arbohydrazide]	–	22.13	–	39 nM	863 nM
Cc1cc2cc(C(=O)N(Cc3ccc(-c4cccs4)cn3)N(C)c3ncccn3)ccc2nc1N [Example 214, 2-amino-N',3-dimethyl-N'-(pyrimidin-2-yl)-N-((5-(thien-2-yl)pyridin-2-yl)methyl) quinoline-6-carbohydrazide]	29 nM	23.93	694 nM	–	–
Cc1cc2cc(C(=O)N(Cc3ccc4sc(C5CCN(C)CC5)nc4c3)N(C)c3ncccn3)ccc2nc1N [Example 219]	216 nM	14.53	3140 nM	–	–
Cc1csc(-c2ccc(CN(C(=O)c3ccc4nc(N)c(C)cc4c3)N(C)c3ncccn3)nc2)n1 [Example 227, 2-amino-N',3-dimethyl-N-((5-(4-methylthiazol-2-yl)pyridin-2-yl)methyl)-N'-(pyrimidin-2-yl)quinoline-6-carbohydrazide]	140 nM	24.44	3420 nM	–	–
Cc1cc2cc(C(=O)N(Cc3ccc(-c4cnn(C)n4)cn3)N(C)c3ncccn3)ccc2nc1N [Example 228, 2-amino-N',3-dimethyl-N-((5-(2-methyl-2H-1,2,3-triazol-4-yl)pyridin-2-yl)methyl)-N'-(pyrimidin-2-yl)quinoline-6-carbohy drazide]	51 nM	25.92	1320 nM	–	–
Cc1cc2cc(C(=O)N(Cc3ccc(-c4nc(C#N)cs4)cn3)N(C)c3ncccn3)ccc2nc1N [Example 230, 2-amino-N-((5-(4-cyanothiazol-2-yl)pyridin-2-yl)methyl)-N',3-dimethyl-N'-(pyrimidin-2-yl)quinoline-6-carbohydrazide]	27 nM	10.33	279 nM	–	–
Cc1cc2cc(C(=O)N(Cc3ccc(-c4nnn(C)n4)cn3)N(C)c3ncccn3)ccc2nc1N [Example 231, 2-amino-N',3-dimethyl-N-((5-(2-methyl-2H-tetrazol-5-yl)pyridin-2-yl)methyl)-N'-(pyrimidin-2-yl)quinoline-6-carbohydrazide]	212 nM	12.71	2700 nM	–	–
Cc1cc2cc(C(=O)N(Cc3ccc(-c4nccs4)cn3)N(C)c3ncccn3)ccc2nc1N [Example 234, 2-amino-N',3-dimethyl-N'-(pyrimidin-2-yl)-N-((5-(thiazol-2-yl)pyridin-2-yl)methyl)quinoline-6-carbohydrazide]	20 nM	37.50	750 nM	–	–
Cc1cc2cc(C(=O)N(Cc3ccc(-c4ccc(N(C)CCO)nc4)cn3)N(C)c3ncccn3)ccc2nc1N [Example 246, 2-amino-N-((6'-((2-hydroxyethyl) (methyl)amino)-[3,3'-bipyridine]-6-yl)methyl)-N',3-dimethyl-N'-(pyrimidin-2-yl)quinoline-6-carbohydrazide]	18 nM	26.78	482 nM	–	–
CN(c1ncccn1)N(Cc1ccc(-c2cnn(C(F)(F)F)c2)cn1)C(=O)c1ccc2nc(N)c3cnn(C)c3c2c1 [Example 248, 4-amino-N',1-dimethyl-N'-(pyrimidin-2-yl)-N-((5-(1-(trifluoromethyl)-1H-pyrazol-4-yl)pyridin-2-yl)methyl)-1H-pyrazolo[4,3-c]quinoline-8-carbohydrazide]	3.9 nM	16.15	63 nM	–	–
COCCN(C)c1ccc(-c2ccc(CN(C(=O)c3ccc4nc(N)c(C)cc4c3)N(C)c3ncccn3)nc2)cn1 [Example 254, 2-amino-N-((6'-((2-methoxyethyl)(methyl)amino)-[3,3'-bipyridine]-6-yl)methyl)-N',3-d imethyl-N'-(pyrimidin-2-yl)quinoline-6-carbohydrazide]	42 nM	11.98	503 nM	–	–
CCN(CC)c1ccc(-c2ccc(CN(C(=O)c3ccc4nc(N)c(C)cc4c3)N(C)c3ncccn3)nc2)cn1 [Example 255, 2-amino-N-((6'-(diethylamino)-[3,3'-bipyridin]-6-yl)methyl)-N',3-dimethyl-N'-(pyrimidin-2-yl)quinoline-6-carbohydrazide]	81 nM	12.07	978 nM	–	–
Cc1cc2cc(C(=O)N(Cc3ccc(-c4ccc(N5CCC5)nc4)cn3)N(C)c3ncccn3)ccc2nc1N [Example 256, 2-amino-N-((6'-(azetidin-1-yl)-[3,3'-bipyridin]-6-yl)methyl)-N',3-dimethyl-N'-(pyrimidin-2-yl)quinoline-6-carbohydrazide]	52 nM	16.83	875 nM	–	–

Reference: patent EP4745134A1 (Jiangsu Yahong Meditech Co., Ltd., priority 2023, dated 2025)
